Test results: US20240148821A1, “PHARMACEUTICAL USE OF CYCLIC PEPTIDE COMPOUND” (CHUGAI SEIYAKU KABUSHIKI KAISHA, priority 2021, published 2024)
Numbered stars: 1 amine (or outer) side, 2 acyl side, 3 side chain; on linkers, the order of the positions; unused ones are H or OH. Bridge positions count the residues as written; N and C are the ends. Square brackets hold non-standard residues; d marks the D form. Peptide text beside a SMILES is read from it. * marks the point of attachment. hPhe(3,5-F2-4-CF3) = N[C@@H](CCc1cc(F)c(C(F)(F)F)c(F)c1)C(=O)O; hPhe(3-Cl-4-CF3) = N[C@@H](CCc1ccc(C(F)(F)F)c(Cl)c1)C(=O)O; NEtPhe(4-CF3) = CCN[C@@H](Cc1ccc(C(F)(F)F)cc1)C(=O)O; X11 = O=C([C@H](CCc1ccc2occc2c1)N[*:1])[*:2]; NMePhe(4-Me) = CN[C@@H](Cc1ccc(C)cc1)C(=O)O; NMedβ3hAla = C[C@H](CC(=O)[*:2])N(C)[*:1]; NMeNva(5,5-F2) = CN[C@@H](CCC(F)F)C(=O)O; NMeGly(cPent) = CN[C@H](C(=O)O)C1CCCC1; Pro(4,4-F2) = O=C(O)[C@@H]1CC(F)(F)CN1; NMeCha = CN[C@@H](CC1CCCCC1)C(=O)O; NMeGly(cPr) = CN[C@H](C(=O)O)C1CC1; Hyp = O=C(O)[C@@H]1C[C@@H](O)CN1; NMeChg = CN[C@H](C(=O)O)C1CCCCC1; dNMeF = CN[C@H](Cc1ccccc1)C(=O)O; NMeE = CN[C@@H](CCC(=O)O)C(=O)O; Piperidide(4-Me) = CC1CCN(*)CC1; NMeD = CN[C@@H](CC(=O)O)C(=O)O; NMeL = CN[C@@H](CC(C)C)C(=O)O; Cba = N[C@@H](CC1CCC1)C(=O)O; NMeV = CN[C@H](C(=O)O)C(C)C; d(β3hA) = C[C@@H](N)CC(=O)O; Morpholide = C1CN(*)CCO1; NMeA = CN[C@@H](C)C(=O)O; NMeAib = CNC(C)(C)C(=O)O; Piperidide = C1CCN(*)CC1; Pyrrolidide = C1CCN(*)C1; dNMeA = CN[C@H](C)C(=O)O; Ac5c = NC1(C(=O)O)CCCC1; Aze = O=C(O)[C@@H]1CCN1; Ac4c = NC1(C(=O)O)CCC1; Sar = CNCC(=O)O

Target: protein-protein interaction between Kras and SOS1 (biotin-tagged human Kras loaded with GDP, His-tagged human SOS1) (Homo sapiens (Human), UniProt P01116, G12D)
Assay: Protein-protein interaction inhibition between Kras and SOS1 (KrasG12D-SOS PPI) using AlphaScreen;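 also: kras produced in E. coli, Ni-coupled donor beads and streptavidin acceptor beads, excitation 680 nm with emission detected at 520–620 nm via singlet oxygen transfer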
Assay type: biochemical
Settings: AlphaScreen; biotin-tagged human Kras loaded with GDP, His-tagged human SOS1; read-out: KRAS G12D-SOS PPI IC50

| SMILES | IC50 |
| --- | --- |
| CC[C@H](C)[C@@H]1NC(=O)[C@H](CC(C)C)N(C)C(=O)C[C@@H](C(=O)N2CCCCC2)N(C)C(=O)[C@H](C2CCCC2)N(C)C(=O)C2(CCCC2)NC(=O)[C@@H]2CCCN2C(=O)[C@H](CCc2ccc3occc3c2)NC(=O)CN(C)C(=O)[C@H](CC2CCCCC2)N(C)C(=O)[C@@H]2CCN2C(=O)[C@H](C)N(C)C1=O [Compound 2063] ([NMeL]I[NMeA][Aze][NMeCha][Sar][X11]P[Ac5c][NMeGly(cPent)][NMeD]-Piperidide; lactam N-11 (inferred); C-terminus assumed) | 8.8 nM |
| CC[C@H](C)[C@@H]1NC(=O)[C@H](C2CC2)N(C)C(=O)C[C@@H](C(=O)N2CCCCC2)N(C)C(=O)[C@H](C(C)C)N(C)C(=O)C2(CCCC2)NC(=O)[C@@H]2CCCN2C(=O)[C@H](CCc2ccc(C(F)(F)F)c(Cl)c2)NC(=O)CN(C)C(=O)[C@H](CC2CCCCC2)N(C)C(=O)[C@@H]2CCN2C(=O)[C@H](C)N(C)C1=O [Compound 100] ([NMeGly(cPr)]I[NMeA][Aze][NMeCha][Sar][hPhe(3-Cl-4-CF3)]P[Ac5c][NMeV][NMeD]-Piperidide; lactam N-11) | 7.4 nM |
| CC(C)C[C@H]1C(=O)N[C@@H](CC2CCC2)C(=O)N(C)[C@@H](C)C(=O)N2CC[C@H]2C(=O)N(C)[C@@H](CC2CCCCC2)C(=O)N(C)CC(=O)N[C@@H](CCc2ccc(C(F)(F)F)c(Cl)c2)C(=O)N2CCC[C@H]2C(=O)NC2(CCCC2)C(=O)N(C)[C@@H](C(C)C)C(=O)N(C)[C@H](C(=O)N2CCCCC2)CC(=O)N1C [Compound 733] ([NMeL][Cba][NMeA][Aze][NMeCha][Sar][hPhe(3-Cl-4-CF3)]P[Ac5c][NMeV][NMeD]-Piperidide; lactam N-11) | 51 nM |
| CC(C)C[C@H]1C(=O)N[C@@H](C(C)C)C(=O)N(C)[C@@H](C)C(=O)N2CC[C@H]2C(=O)N(C)[C@@H](CC2CCCCC2)C(=O)N(C)CC(=O)N[C@@H](CCc2ccc(C(F)(F)F)c(Cl)c2)C(=O)N2CCC[C@H]2C(=O)NC2(CCCC2)C(=O)N(C)[C@@H](C(C)C)C(=O)N(C)[C@H](C(=O)N2CCCCC2)CC(=O)N1C [Compound 1791] ([NMeL]V[NMeA][Aze][NMeCha][Sar][hPhe(3-Cl-4-CF3)]P[Ac5c][NMeV][NMeD]-Piperidide; lactam N-11) | 3 nM |
| CC[C@H](C)[C@@H]1NC(=O)[C@H](CC(C)C)N(C)C(=O)C[C@@H](C)NC(=O)[C@H](C2CCCC2)N(C)C(=O)C2(CCCC2)NC(=O)[C@@H]2CCCN2C(=O)[C@H](CCc2ccc(C(F)(F)F)c(Cl)c2)NC(=O)[C@@H](C)N(C)C(=O)[C@H](Cc2ccc(C)cc2)N(C)C(=O)[C@@H]2CCN2C(=O)[C@H](C)N(C)C1=O [Compound 1504] (cyclo([Ac5c][NMeGly(cPent)][d(β3hA)][NMeL]I[NMeA][Aze][NMePhe(4-Me)][dNMeA][hPhe(3-Cl-4-CF3)]P)) | 57 nM |
| CC[C@H](C)[C@@H]1NC(=O)[C@H](C)N(C)C(=O)C[C@@H](C)N(C)C(=O)[C@H](C2CCCCC2)N(C)C(=O)C(C)(C)N(C)C(=O)[C@@H]2CCCN2C(=O)[C@H](CCc2ccc(C(F)(F)F)c(Cl)c2)NC(=O)CN(C)C(=O)[C@H](CC2CCCCC2)N(C)C(=O)[C@@H]2CCN2C(=O)[C@H](C)N(C)C1=O [Compound 2155] (cyclo([Aze][NMeCha][Sar][hPhe(3-Cl-4-CF3)]P[NMeAib][NMeChg][NMedβ3hAla][NMeA]I[NMeA])) | 28 nM |
| CC[C@H](C)[C@@H]1NC(=O)[C@H](CC(C)C)N(C)C(=O)C[C@@H](C)N(C)C(=O)[C@H](C2CCCC2)N(C)C(=O)C2(CCC2)NC(=O)[C@@H]2CC(F)(F)CN2C(=O)[C@H](CCc2cc(F)c(C(F)(F)F)c(F)c2)NC(=O)CN(C)C(=O)[C@H](Cc2ccc(C(F)(F)F)cc2)N(CC)C(=O)[C@@H]2CCN2C(=O)[C@H](C)N(C)C1=O [Compound 1049] (cyclo([Ac4c][NMeGly(cPent)][NMedβ3hAla][NMeL]I[NMeA][Aze][NEtPhe(4-CF3)][Sar][hPhe(3,5-F2-4-CF3)][Pro(4,4-F2)])) | 3.7 nM |
| CC[C@H](C)[C@@H]1NC(=O)[C@H](CC(C)C)N(C)C(=O)C[C@@H](C(=O)N2CCC(C)CC2)N(C)C(=O)[C@H](C(C)C)N(C)C(=O)C2(CCCC2)NC(=O)[C@@H]2CCCN2C(=O)[C@H](CCc2ccc(C(F)(F)F)c(Cl)c2)NC(=O)CN(C)C(=O)[C@H](CC2CCCCC2)N(C)C(=O)[C@@H]2CCN2C(=O)[C@H](C)N(C)C1=O [Compound 1291] ([NMeL]I[NMeA][Aze][NMeCha][Sar][hPhe(3-Cl-4-CF3)]P[Ac5c][NMeV][NMeD]-{Piperidide(4-Me)}; lactam N-11) | 5.4 nM |
| CC[C@H](C)[C@@H]1NC(=O)[C@H](CC(C)C)N(C)C(=O)C[C@@H](C(=O)N2CCOCC2)N(C)C(=O)[C@H](C2CCCC2)N(C)C(=O)C2(CCCC2)NC(=O)[C@H](CCC(=O)N2CCCC2)N(C)C(=O)[C@H](CCc2ccc(C(F)(F)F)c(Cl)c2)NC(=O)CN(C)C(=O)[C@H](CC2CCCCC2)N(C)C(=O)[C@@H]2CCN2C(=O)[C@H](C)N(C)C1=O [Compound 2104] ([NMeL]I[NMeA][Aze][NMeCha][Sar][hPhe(3-Cl-4-CF3)][NMeE](Pyrrolidide)[Ac5c][NMeGly(cPent)][NMeD]-Morpholide; lactam N-11) | 10 nM |
| CC[C@H](C)[C@@H]1NC(=O)[C@H](CC(C)C)N(C)C(=O)C[C@@H](C(=O)N2CCCCC2)N(C)C(=O)[C@H](C2CCCC2)N(C)C(=O)C2(CCCC2)NC(=O)[C@@H](Cc2ccccc2)N(C)C(=O)[C@H](CCc2ccc(C(F)(F)F)c(Cl)c2)NC(=O)CN(C)C(=O)[C@H](CC2CCCCC2)N(C)C(=O)CN(C)C(=O)CN(C)C1=O [Compound 1446] ([NMeL]I[Sar][Sar][NMeCha][Sar][hPhe(3-Cl-4-CF3)][dNMeF][Ac5c][NMeGly(cPent)][NMeD]-Piperidide; lactam N-11) | 150 nM |
| CC[C@H](C)[C@@H]1NC(=O)[C@H](CC(C)C)N(C)C(=O)C[C@@H](C)N(C)C(=O)[C@H](C(C)C)N(C)C(=O)C2(CCCC2)NC(=O)[C@@H]2CCCN2C(=O)[C@H](CCc2ccc(C(F)(F)F)c(Cl)c2)NC(=O)CN(C)C(=O)[C@H](CC2CCCCC2)N(C)C(=O)[C@@H]2CCN2C(=O)[C@H](C)N(C)C1=O [Compound 1800] (cyclo([Ac5c][NMeV][NMedβ3hAla][NMeL]I[NMeA][Aze][NMeCha][Sar][hPhe(3-Cl-4-CF3)]P)) | 11 nM |
| CCO[C@@H]1C[C@H]2C(=O)NC3(CCCC3)C(=O)N(C)[C@@H](CC(C)C)C(=O)N(C)[C@H](C(=O)N3CCCC3)CC(=O)N(C)[C@@H](CC(C)C)C(=O)N[C@@H]([C@@H](C)CC)C(=O)N(C)CC(=O)N(C)CC(=O)N(C)[C@@H](CC3CCCCC3)C(=O)N(C)CC(=O)N[C@@H](CCc3ccc(C(F)(F)F)c(Cl)c3)C(=O)N2C1 [Compound 1748] ([NMeL]I[Sar][Sar][NMeCha][Sar][hPhe(3-Cl-4-CF3)][Hyp](Et)[Ac5c][NMeL][NMeD]-Pyrrolidide; lactam N-11) | 0.61 nM |
| CC[C@H](C)[C@@H]1NC(=O)[C@H](CCC(F)F)N(C)C(=O)C[C@@H](C(=O)N2CCCCC2)N(C)C(=O)[C@H](C(C)C)N(C)C(=O)C2(CCCC2)NC(=O)[C@@H]2CCCN2C(=O)[C@H](CCc2ccc(C(F)(F)F)c(Cl)c2)NC(=O)CN(C)C(=O)[C@H](CC2CCCCC2)N(C)C(=O)[C@@H]2CCN2C(=O)[C@H](C)N(C)C1=O [Compound 1797] ([NMeNva(5,5-F2)]I[NMeA][Aze][NMeCha][Sar][hPhe(3-Cl-4-CF3)]P[Ac5c][NMeV][NMeD]-Piperidide; lactam N-11) | 3.7 nM |
